The target of one test is T1, Recombinant human Src (Homo sapiens, UniProt P12931).
T1 construct: made in house; host or cells: baculovirus-insect cell system
Put plainly: Src tyrosine kinase activity, poly E4Y and 32P-ATP. Type of test: biochemical. In a few lines: (§1)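 Recombinant GST-Csk (E. coli) or baculovirus-expressed human Src assayed on poly E4Y in 0.15 M EPPS-NaOH pH 8.0, 6 mM MgCl2, 0.2 mM γ32P-ATP, 10% glycerol, 0.1% Triton X-100. Read-out is 32P incorporation into poly E4Y; for ATP variation (0–250 μM), poly E4Y held at 150 μg/ml.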

For a further test, the target named is T2, Csk (Homo sapiens, UniProt P41240).
T2 construct: GST (glutathione-S-transferase) (N); made in house; host or cells: E. coli (pGEX vector)
Put plainly: Csk tyrosine kinase activity, poly E4Y and 32P-ATP. Type of test: biochemical. In a few lines: as §1

A further test has as its target FGF receptor (FGFr) (Homo sapiens, UniProt P11362). Put plainly: FGFr tyrosine kinase activity, poly E4Y and 32P-ATP. Type of test: biochemical. As to the method:
Recombinant human Src was expressed using the baculovirus-insect cell system and purified as published (Budde et al., 1993 and 2000). Recombinant Csk and the FGF receptor (FGFr) were expressed as glutathione-S-transferase fusion proteins using the pGEX expression vector and E. coli, and purified as described (Sun & Budde, 1995). The tyrosine kinase activity of Src, Csk and FGFr was determined using poly E4Y and ^32P-ATP. Briefly, enzymes were assayed in a reaction mixture consisting of 0.15 M EPPS-NaOH (pH 8.0) with 6 mM MgCl2, 0.2 mM γ^32P-ATP (0.2-0.4 mCi/μmol), 10% glycerol, 0.1% Triton X-100, and poly E4Y. Poly E4Y is a synthetic peptide whose phosphorylation is measured in this assay by the addition of the radioactively labeled phosphate from the ATP (Budde et al., 1995). […] When ATP was varied (0, 50, 100 and 250 μM), poly E4Y was kept constant at 150 μg/ml. […] From this screening, the thienopyrimidine-based scaffold was identified as one of the chemical structures to pursue. […] These analogues were screened against Src, Csk and FGFr (Table 2, Table 3, and Table 4).

A further test addresses T3, N12 neuronal Src variant (Homo sapiens, UniProt P12931).
T3 construct: made in house
Put plainly: Testing against neuronal Src variant N12. Type of test: biochemical. As to conditions: Table 5. As to the method:
(§2) The tyrosine kinase activity of Src, Csk and FGFr was determined using poly E4Y and ^32P-ATP. Briefly, enzymes were assayed in a reaction mixture consisting of 0.15 M EPPS-NaOH (pH 8.0) with 6 mM MgCl2, 0.2 mM γ^32P-ATP (0.2-0.4 mCi/μmol), 10% glycerol, 0.1% Triton X-100, and poly E4Y. Poly E4Y is a synthetic peptide whose phosphorylation is measured in this assay by the addition of the radioactively labeled phosphate from the ATP (Budde et al., 1995). […] When ATP was varied (0, 50, 100 and 250 μM), poly E4Y was kept constant at 150 μg/ml.
(§3) Thienopyrimidine-based compounds were also tested against neuronal Src variants (Table 5).

A further test has as its target T4, N23 neuronal Src variant (Homo sapiens, UniProt P12931).
T4 construct: made in house
Put plainly: Testing against neuronal Src variant N23. Format: biochemical. As to conditions: Table 5. As for the experimental part: as §2, §3

In test [1] the test system is osteoclastic bone resorption. The settings on record: Rodan and Martin, 2000; cited from earlier work.
Test [2] deals with colon adenocarcinoma cell line, HT29. Put plainly: MTT reduction assay, in vitro drug cytotoxicity. Type of test: cell-based. As to conditions: Homo sapiens, HT-29, 72 hours incubation, read-out: IC50, HT-29 cells. As to the method:
Compounds synthesized using the methods described above were tested using a standard MTT assay (Green et al., 1984) against a colon adenocarcinoma cell line, HT29. A human ovarian cancer cell line, SKOv-3 may also be used. The use of an MTT assay using these cells is recognized as an accepted assay for anti-tumor activity by those in the field. The in vitro activity of Src inhibitors of the present invention against diseases other than cancer may be assayed by methods known to those of skill in the art.
In vitro drug cytotoxicities against a colon adenocarcinoma cell line, HT29 was assessed by using the MTT reduction assay, as previously reported (Green et al., 1984). A human ovarian cancer cell line, SKOv-3 may also be used. The MTT dye was obtained from Sigma Chemical Co. (St. Louis, Mo.). The drugs were dissolved in DMSO:PEG 300 (1:1). Neither DMSO or PEG 300 are toxic to cells at a concentration of 31.6 μg/ml. […] The optical density of each well was then measured with a microplate spectrophotometer at a wavelength of 570 nm with a reference cell at 650 nm. The percent cell viability was calculated by the following equation: % cell viability=(OD treated wells/OD control wells)×100
where OD is the mean optical density from four determinations. The percent cell viability values were plotted against the drug concentrations used, and the IC50 was calculated from the curve.
In general terms: Tetrazolium assays rely on reduction of a dye to a coloured formazan, in cell work by metabolically active cells.

The mark [3] stands for this setting: Table 4, NI = no inhibition upto 50 ug/mL.
The mark [4] stands for this setting: Table 2, read-out: Src IC50 (especially good inhibitors of Src).
Where [5] appears, read: Table 5, N6 = Src, read-out: N6(Src) IC50.
Where [6] appears, read: read-out: IC50 (preferred compounds for treatment of Src family-related disease).
Where [7] appears, read: screening assay, 50 μg/ml poly E4Y, 0.2 mM 32P-ATP.

Where two headings read alike, the source gives them in different places.

As a reminder, the IC50 is the concentration that inhibits the measured activity by half.

T2 sequence (P41240 whole entry, species assumed): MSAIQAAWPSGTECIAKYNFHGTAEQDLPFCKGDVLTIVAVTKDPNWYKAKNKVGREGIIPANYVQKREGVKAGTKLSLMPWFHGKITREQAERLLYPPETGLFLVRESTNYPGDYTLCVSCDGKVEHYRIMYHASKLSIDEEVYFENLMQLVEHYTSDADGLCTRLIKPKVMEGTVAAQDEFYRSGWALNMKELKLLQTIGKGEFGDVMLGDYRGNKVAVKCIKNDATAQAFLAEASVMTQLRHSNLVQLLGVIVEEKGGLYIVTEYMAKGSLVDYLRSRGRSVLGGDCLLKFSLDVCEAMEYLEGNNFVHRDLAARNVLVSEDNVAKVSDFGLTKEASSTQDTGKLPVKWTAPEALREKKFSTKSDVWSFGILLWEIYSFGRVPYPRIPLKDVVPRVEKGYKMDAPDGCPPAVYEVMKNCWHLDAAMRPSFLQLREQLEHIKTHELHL
FGF receptor (FGFr), sequence (P11362 398-822): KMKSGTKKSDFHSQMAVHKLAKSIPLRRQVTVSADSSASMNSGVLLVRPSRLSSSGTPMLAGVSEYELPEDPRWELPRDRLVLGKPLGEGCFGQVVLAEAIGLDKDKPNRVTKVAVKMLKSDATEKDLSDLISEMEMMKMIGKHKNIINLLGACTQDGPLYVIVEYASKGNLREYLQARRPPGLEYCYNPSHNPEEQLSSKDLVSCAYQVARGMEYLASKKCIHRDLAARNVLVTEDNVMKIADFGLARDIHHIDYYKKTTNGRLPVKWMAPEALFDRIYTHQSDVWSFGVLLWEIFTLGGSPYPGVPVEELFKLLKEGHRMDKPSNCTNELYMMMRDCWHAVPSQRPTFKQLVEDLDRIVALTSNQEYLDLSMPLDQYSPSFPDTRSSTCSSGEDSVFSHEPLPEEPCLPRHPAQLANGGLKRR

On to `CCO.Cc1csc2c(NN=Cc3cccnc3)ncnc12.Cc1csc2c(NN=Cc3cccnc3)ncnc12` [Compound 499], for which, at Recombinant human Src (Table 4, read-out: Src IC50), the half-inhibitory concentration (IC50) is 8600 nM. Further, the “Csk IC50” value on Csk (setting [3]) is listed as “NI (NI = no inhibition upto 50 ug/mL)”. Moreover, the “FGFr IC50” value on FGF receptor (FGFr) (setting [3]) is listed as “NI (NI = no inhibition upto 50 ug/mL)”.

In the case of `Cc1csc2c(NN=Cc3cccs3)ncnc12` [Compound 29, 2-Thiophenecarboxaldehyde(7-methylthieno[3,2-d]pyrimidin-4-yl)hydrazone], the 50% inhibitory concentration (IC50) on Recombinant human Src (setting [4]) was at most 2000 nM; on Recombinant human Src (setting [5]), 950 nM; on Recombinant human Src (setting [6]), under 2000 nM; against Csk (setting [7]) it was over 182000 nM; on N12 neuronal Src variant, 1170 nM; against N23 neuronal Src variant, 840 nM.

Turning to `C(=NNc1ncnc2cc(-c3ccccc3)sc12)c1cccnc1` [Compound 199, 3-Pyridinecarboxaldehyde(6-phenylthieno[3,2-d]pyrimidin-4-yl)hydrazone], the IC50 at Recombinant human Src (setting [4]) is at most 2000 nM; at Recombinant human Src (setting [5]), 150 nM; on Recombinant human Src (setting [6]), under 2000 nM; on Csk (setting [7]) it was over 151000 nM; against N12 neuronal Src variant, 230 nM; at N23 neuronal Src variant, 120 nM.

As to `CO[C@H]1[C@@H](OC)C[C@H](C)[C@@H](OC)C2=CC(=O)C=C(NC(=O)/C(C)=C/C=C\[C@H](OC)[C@@H](OC(N)=O)/C(C)=C/[C@@H]1C)C2=O` [Herbimycin A], in test [1], the “osteoclastic bone resorption in vivo” value was “inhibits osteoclastic bone resorption”.

Turning to `Cc1csc2c(NN=Cc3ccc(C(F)(F)F)cc3)ncnc12` [Compound 9, 4-Trifluoromethylbenzaldehyde(7-methylthieno[3,2-d]pyrimidin-4-yl)hydrazone], on Csk (setting [7]), the “Csk IC50” value is on record as “NI (NI = no inhibition up to 50 ug/mL)”. Also, the “FGFr IC50” value at FGF receptor (FGFr) (setting [7]) was “NI (NI = no inhibition up to 50 ug/mL)”.

Consider “1-Hydroxy-1-methyl-1,1-di-[3-hydroxy-4-methoxybenzaldehyde(7-methylthieno[3,2-d]pyrimidin-4-yl)hydrazone]methane [Compound 502]”, for which, at Recombinant human Src (Table 4, read-out: Src IC50), the IC50 was found to be 8700 nM. Besides, the “Csk IC50” value at Csk (setting [3]) is given as “NI (NI = no inhibition upto 50 ug/mL)”. Besides, the “FGFr IC50” value at FGF receptor (FGFr) (setting [3]) is reported as “NI (NI = no inhibition upto 50 ug/mL)”.

For the compound `COc1ccc(C=NNc2ncnc3c(C)csc23)cc1O` [Compound 51, 3-Hydroxy-4-methoxybenzaldehyde(7-methylthieno[3,2-d]pyrimidin-4-yl)hydrazone], the IC50 on Recombinant human Src (setting [4]) was at most 2000 nM; at Recombinant human Src (setting [5]), 510 nM; on Recombinant human Src (setting [6]) it was under 2000 nM; against N12 neuronal Src variant it was 1750 nM; on N23 neuronal Src variant, 510 nM.

For `Cc1csc2c(NN=Cc3cccc(Br)c3)ncnc12` [Compound 57, 3-Bromobenzaldehyde(7-methylthieno[3,2-d]pyrimidin-4-yl)hydrazone], at Csk (setting [7]), the “Csk IC50” value is “NI (NI = no inhibition up to 50 ug/mL)”. In addition, the “FGFr IC50” value on FGF receptor (FGFr) (setting [7]) was “NI (NI = no inhibition up to 50 ug/mL)”.

As for `C(=NNc1ncnc2cc(-c3ccsc3)sc12)c1cccnc1` [Compound 223, 3-Pyridinecarboxaldehyde(6-(3-thienyl)thieno[3,2-d]pyrimidin-4-yl)hydrazone], the “Csk IC50” value on Csk (setting [7]) was “NI (NI = no inhibition up to 50 ug/mL)”. In addition, at FGF receptor (FGFr) (setting [7]), the “FGFr IC50” value is “NI (NI = no inhibition up to 50 ug/mL)”.

With “1-Hydroxy-1-methyl-1,1-di-[4-carboxybenzaldehyde(7-methylthieno[3,2-d]pyrimidin-4-yl)hydrazone]methane [Compound 500]”, the half-inhibitory concentration (IC50) at Recombinant human Src (Table 4, read-out: Src IC50) amounted to 5300 nM; on Csk (setting [3]) it was 57000 nM. The “FGFr IC50” value at FGF receptor (FGFr) (setting [3]) is recorded as “NI (NI = no inhibition upto 50 ug/mL)”.

For `CCO.Cc1csc2c(NN=Cc3cccs3)ncnc12.Cc1csc2c(NN=Cc3cccs3)ncnc12` [Compound 501], the IC50 at Recombinant human Src (Table 4, read-out: Src IC50) is 10700 nM. In addition, on Csk (setting [3]), the “Csk IC50” value is reported as “NI (NI = no inhibition upto 50 ug/mL)”. In addition, the “FGFr IC50” value on FGF receptor (FGFr) (setting [3]) is “NI (NI = no inhibition upto 50 ug/mL)”.

As to `Cc1csc2c(NN=Cc3cccnc3)ncnc12` [Compound 27, 3-Pyridinecarboxaldehyde(7-methylthieno[3,2-d]pyrimidin-4-yl)hydrazone], the IC50 at Recombinant human Src (setting [4]) was at most 2000 nM; at Recombinant human Src (setting [5]), 370 nM; on Recombinant human Src (setting [6]) it was under 2000 nM; at N12 neuronal Src variant, 590 nM; against N23 neuronal Src variant, 280 nM; in test [2], 13000 nM.

Values taken from patent US7285556B2, “Thienopyrimidine-based inhibitors of the src family” (Board of Regents, The University of Texas Systems, priority 2000, dated 2007).
